Reference: patent publication US11272841B2, “Indicator fluids, systems, and methods for assessing movement of substances within, to or from a cerebrospinal fluid, brain or spinal cord compartment of a cranio-spinal cavity of a human” (BRAINWIDESOLUTIONS AS, priority 2017, dated 2022)

Assays:
[1] = Gadobutrol concentration in blood at time points after gadobutrol was present in CSF (FIG. 1e-h); assay type: in vivo, human
Excerpt: In test studies, the inventors measured concentrations of the indicator fluid gadobutrol in blood at different time points after indicator fluid was present in CSF. […] In FIG. 1e-h are provided examples of measurements of gadobutrol (indicator fluid) concentrations in blood. On the y-axis is shown the indicator fluid concentration level 119 in blood (i.e. concentration of gadobutrol measured in units mg/kg), and on x-axis the time 120 elapsed from gadobutrol was present within the CSF. The concentration level of gadobutrol was measured after different time points 120, including after 1-2 hours, 3-4 hours, 5-6 hours, 7-8 hours, 23-26 hours, and 46-49 hours, for different individuals.
With reference to FIG. 1e, trend plots of average values of gadobutrol concentrations in blood (mg/kg) are shown for individuals with intracranial hypotension 121 (symbol ♦; n=4), idiopathic intracranial hypertension 122 (symbol ●; n=1), idiopathic normal pressure hydrocephalus 123 (symbol ▴; n=1), cerebral cyst 124 (symbol O; n=4), and arachnoid cyst 125 (symbol ▪; n=4). The letter n refers to number of individuals within each group. […] Half-time of gadobutrol in blood is about 1.8 hours. It should be noted that the amount and time course of appearance of gadobutrol in blood differs for the various groups of individuals, related to the fact that the ability to remove substances from the cranio-spinal compartment varies between individuals. […] The concentrations may be determined after 24 or 48 hours or after any time point within 72 hours after the indicator fluid is present in CSF.
In FIG. 1f-h, the inventors provide some examples of measurements of indicator fluid (the MRI contrast agent gadobutrol) concentration level in blood at different time points after indicator fluid being present in CSF in three separate individuals. It should be noted that the invention gives no limitation regarding the method by which the blood concentration is measured. […]

[2] = human, in vivo
Description: Repeated T1-weighted MRI scans of the intracranial compartment (and neck region for imaging of cervical lymph nodes), either in the presence or absence of the MRI contrast agent gadobutrol (0.5 ml of 1.0 mmol/ml; Gadovist®, Bayer Pharma AG, GE) delivered to the CSF compartment. MRI scans were acquired on a 3 Tesla Philips Ingenia MRI scanner (Philips Medical systems, Best, The Netherlands). The inventors used a dedicated imaging protocol for each region, that was applied to all time points. The following parameters for 3D T1 w imaging of the intracranial compartment were used: repetition time (TR)=5.1 ms (set to minimum), echo time (TE)=2.3 ms (set to minimum), flip angle=8 degrees, field of view=256×256 cm, and matrix=256×256 pixels (reconstructed 512×512). Total 184 over-contiguous slices with 1 mm thickness were sampled and automatically reconstructed to 368 slices and a thickness of 0.5 mm. Each image acquisition lasted 6 minutes and 29 seconds. An automated anatomy recognition protocol based on landmark detection in MRI data (SmartExam™, Philips Medical Systems, Best, The Netherlands) was applied at every time point to secure consistency and reproducibility of the MRI studies. Neck images were obtained in an anatomical standardized coronal plane, using T1 weighted turbo spin echo (TSE) DIXON with the following main image sequence parameters: TR=560 ms, TE=14 ms, flip angle=90 degrees, field of view 250×198 mm, voxel size=1×1×3 mm reconstructed to 0.58×0.58×3 mm^3, gap 0.3 mm, number of slices=30. For detection of neck lymph nodes, we obtained coronal T2 weighted TSE DIXON with TR=ranged 2500-3500 (actual 2500), TE=80 ms, flip angle=90 degrees, field of view 250×200 mm, resolution 0.6×0.79×3 mm^3 reconstructed to 0.58×0.58×3 mm^3, gap 0.3 mm, number of slices=30. Moreover, to ensure same position on the coronal slices between scan times a screen dump showing the placement of the first coronal images was saved and used as a reference for subsequent planning by the radiographer. […]

- Time of maximum concentration in blood after gadobutrol present in CSF ([1]; group trend plot: arachnoid cyst (n=4)): 3 to 4 h
- Time of maximum concentration in blood after gadobutrol present in CSF ([1]; group trend plot: cerebral cyst (n=4)): 7 to 8 h
- Time of maximum concentration in blood after gadobutrol present in CSF ([1]; group trend plots: intracranial hypotension (n=4), idiopathic intracranial hypertension (n=1), iNPH (n=1)): 5 to 6 h
- Increase of indication signal as compared without contrast [2]: 29%
- SU enhancement within cervical LNs as proportion of that in the brain [2]: about 40%
- Time of peak enhancement in T1 SUs after gadobutrol present within CSF [2]: 24 h
SMILES: O=C([O-])CN1CCN(CC(=O)[O-])CCN([C@H](CO)[C@H](O)CO)CCN(CC(=O)[O-])CC1.[Gd+3] (racemic) [gadobutrol]
